According to patent US20110244569A1, “METHOD OF INDUCING PROLIFERATION AND/OR DIFFERENTIATION OF NEURAL PRECURSOR CELLS BY INTRODUCING PROLACTIN OR WNT3A TO ACTIVATE LATENT NEURAL PRECURSOR CELLS” (priority 2008, published 2011):
Where a name gives a salt, the structure may show the parent alone.

Experiments:
[1] = test system: primary hippocampal cells; experiment: Primary neurosphere culture, hippocampus; type: cell-based, mouse; conditions: for generation of very large neurospheres (>250 μm) passaged long-term / increase in number of hippocampal neurospheres generated / number of hippocampal neurospheres: 1 ng/mL Wnt3a or 2 ng/mL PRL; for number of hippocampal neurospheres: n=3; for neurosphere number, aged hippocampus: aged (18 month old) hippocampus, n=4
Description: The tissue was enzymatically digested with 0.1% trypsin-EDTA (Gibco/Invitrogen, Eugene, Oreg.) for 7 minutes at 37° C., followed by a wash with 0.014% w/v trypsin inhibitor (type I-S from soybean; Sigma-Aldrich Australia, Sydney, Australia) dissolved in Hepes-buffered minimum essential medium (HEM), which consisted of minimum essential medium (Gibco/Invitrogen) supplemented with 16 mM HEPES (Sigma-Aldrich Australia) and 100 units/ml penicillin/streptomycin (Gibco/Invitrogene). The tissue was centrifuged at 100 rcf for 7 minutes, following which the pellet was resuspended in 1 ml neurosphere growth medium, mechanically triturated until smooth, then filtered through a 40 μm cell sieve (Falcon/BD Biosciences Australia, North Ryde, Australia). The neurosphere growth medium consisted of mouse NeuroCult™ NSC Basal Medium plus mouse NeuroCult™ NSC Proliferation Supplements (StemCell Technologies, Vancouver, Canada) with 2% bovine serum albumin (Roche, Basel, Switzerland) and 2 μg/ml heparin (Sigma-Aldrich Australia). The following growth factors were also included: 20 ng/ml purified mouse receptor-grade EGF (BD Biosciences Australia) and 10 ng/ml recombinant bovine FGF-2 (Roche). After centrifugation at 100 rcf for 7 minutes, the cells were plated at a density of approximately one hippocampus, SVZ or cortex or four olfactory bulbs per 96-well plate (Falcon/BD Biosciences Australia) with 200 μl neurosphere medium per well.
The neurosphere growth medium already contained 4.18 mM KCl. […] This level of potassium is around five times that of the normal physiological concentration of potassium, ˜4 mM. Nicardipine (Sigma-Aldrich), when used, was added to a final concentration of 10 μM. BaCl was used as an alternative to KCl in some experiments at a concentration of 1 mM and GABA at 100 μM. Recombinant mouse Wnt3a (R&D Systems) and recombinant mouse prolactin (PRL; R&D Systems) were added instead of KCl in some experiments at concentrations of 1 ng/mL and 2 ng/mL respectively.
(§1) Primary hippocampal cells were incubated for 10 days, and SVZ, olfactory bulb or cortical cells for 7 days, in humidified 5% CO2 to permit neurosphere formation. The primary neurospheres were then counted and collected for passaging or differentiation. Results of the neurosphere counts were expressed as mean±standard error and statistical analysis was performed using a standard t-Test (two sample assuming equal variance).

[2] = test system: latent precursor cell population; experiment: Neurosphere culture of FACS-sorted Emx1-GFP / GFAP-GFP cells; type: cell-based, mouse
Description: DCX-GFP, Emx1-GFP and GFAP-GFP mice are from the Mutant Mouse Regional Resource Center, The Gene Expression Nervous System Atlas BAC transgenic project (Gong et al., 2002).
Brains were collected and processed. GFP^+ve cells were separated by fluorescence-activated cell sorting (FACS) using a FACS Vantage cell sorter (BD Biosciences). A wild-type littermate control was used to determine background fluorescence levels. For primary neurosphere cultures the cells were plated at a density of 500 cells/well in 96-well plates (Falcon/BD Biosciences, San Jose, Calif.) with 0.2 ml complete medium per well. Complete medium consisted of mouse NeuroCult™ NSC Basal Medium plus mouse NeuroCult™ NSC Proliferation Supplements (StemCell Technologies,
Vancouver, Canada) with 2% bovine serum albumin (Roche, Basel, Switzerland) and 2 μg/ml heparin (Sigma-Aldrich). The following growth factors were also included: 20 ng/ml purified mouse receptor-grade epidermal growth factor (EGF; BD Biosciences Australia) and 10 ng/ml recombinant bovine basic fibroblast growth factor (FGF-2; Roche). Primary cells were incubated for 7 days in humidified 5% CO2 to permit neurosphere formation. The primary neurospheres were then counted and collected for passaging or differentiation. Results of the neurosphere counts were expressed as mean+ or −standard error and statistical analysis was performed using a standard t-Test (two sample assuming equal variance).

[3] = test system: hippocampal neurospheres; experiment: Hippocampal neurosphere passaging; type: cell-based, mouse
Description: Primary neurospheres from the unstimulated hippocampus were also passaged as single spheres.
Hippocampal neurosphere cultures were initiated by removing 150 μl of the medium from wells containing single neurospheres, treating with 100 μl 0.1% trypsin-EDTA for 2 minutes at room temperature, followed by washing with 100 μl trypsin inhibitor in HEM. The neurospheres were mechanically triturated until dissociated and replated in well plates in 2 ml of complete medium. Neurospheres were passaged every 10 days by centrifuging the neurospheres, removing the medium and incubating in 1 ml of 0.1% trypsin-EDTA for 2 minutes at room temperature. After the addition of an equal volume of trypsin inhibitor, the neurospheres were centrifuged at 100 rcf for 5 minutes and the supernatant removed. Cells were mechanically triturated in 500 μl of complete medium and trypan blue staining was used to evaluate the number of cells, both viable and total number, on a hemocytometer. The passaged cells were then re-plated with complete medium at a density of 1×10^4 cells/cm^2 in tissue culture flasks (Nunc, Rochester, N.Y.) or tissue culture plates (Falcon/BD Biosciences) as appropriate.

[4] = test system: olfactory bulb cells; experiment: Primary neurosphere culture, olfactory bulb; type: cell-based, mouse; conditions: potassium-activated vs control
Description: (§2) Adult (6-8 week old) male C57/B16 mice were killed by cervical dislocation, their brains immediately removed and the hippocampus, SVZ, olfactory bulb or cortex dissected. The tissue was enzymatically digested with 0.1% trypsin-EDTA (Gibco/Invitrogen, Eugene, Oreg.) for 7 minutes at 37° C., followed by a wash with 0.014% w/v trypsin inhibitor (type I-S from soybean; Sigma-Aldrich Australia, Sydney, Australia) dissolved in Hepes-buffered minimum essential medium (HEM), which consisted of minimum essential medium (Gibco/Invitrogen) supplemented with 16 mM HEPES (Sigma-Aldrich Australia) and 100 units/ml penicillin/streptomycin (Gibco/Invitrogene). The tissue was centrifuged at 100 rcf for 7 minutes, following which the pellet was resuspended in 1 ml neurosphere growth medium, mechanically triturated until smooth, then filtered through a 40 μm cell sieve (Falcon/BD Biosciences Australia, North Ryde, Australia). […]
as §1

[5] = test system: primary hippocampal cells; experiment: Microarray analysis after KCl depolarization; type: cell-based, mouse; conditions: following depolarization, P<0.001
Description: Hippocampal tissue was dissected and dissociated as described above and incubated either in the presence or absence of 15 mM KCl for 24 hours. Cells were pelleted and total RNA was isolated using the RNeasy mini kit (Qiagen) and quantitated using the Bioanalyzer 2100 (Agilent). aRNA was prepared from 500 ng of RNA using the Message-Amp™-II Biotin Enhanced Kit (Ambion). A total of 15 μg biotinylated aRNA was fragmented and run on a GeneChip mouse Genome 430A 2.0 Array (Affymetrix) in accordance with the manufacturer's instructions.

[6] = test system: SVZ cells; experiment: Primary neurosphere culture, SVZ; type: cell-based, mouse; conditions: for number of SVZ-derived neurospheres: 1 ng/mL Wnt3a or 2 ng/mL PRL, n=2
Description: Adult (6-8 week old) male C57/B16 mice were killed by cervical dislocation, their brains immediately removed and the hippocampus, SVZ, olfactory bulb or cortex dissected. The tissue was enzymatically digested with 0.1% trypsin-EDTA (Gibco/Invitrogen, Eugene, Oreg.) for 7 minutes at 37° C., followed by a wash with 0.014% w/v trypsin inhibitor (type I-S from soybean; Sigma-Aldrich Australia, Sydney, Australia) dissolved in Hepes-buffered minimum essential medium (HEM), which consisted of minimum essential medium (Gibco/Invitrogen) supplemented with 16 mM HEPES (Sigma-Aldrich Australia) and 100 units/ml penicillin/streptomycin (Gibco/Invitrogene). The tissue was centrifuged at 100 rcf for 7 minutes, following which the pellet was resuspended in 1 ml neurosphere growth medium, mechanically triturated until smooth, then filtered through a 40 μm cell sieve (Falcon/BD Biosciences Australia, North Ryde, Australia). The neurosphere growth medium consisted of mouse NeuroCult™ NSC Basal Medium plus mouse NeuroCult™ NSC Proliferation Supplements (StemCell Technologies, Vancouver, Canada) with 2% bovine serum albumin (Roche, Basel, Switzerland) and 2 μg/ml heparin (Sigma-Aldrich Australia). The following growth factors were also included: 20 ng/ml purified mouse receptor-grade EGF (BD Biosciences Australia) and 10 ng/ml recombinant bovine FGF-2 (Roche). After centrifugation at 100 rcf for 7 minutes, the cells were plated at a density of approximately one hippocampus, SVZ or cortex or four olfactory bulbs per 96-well plate (Falcon/BD Biosciences Australia) with 200 μl neurosphere medium per well.
The neurosphere growth medium already contained 4.18 mM KCl. […]
as §1

[7] = test system: cortical cells; experiment: Primary neurosphere culture, cortex; type: cell-based, mouse; conditions: depolarization vs control
Description: as §2, §1

[8] = test system: C57BL/6 male mice; experiment: Pilocarpine-induced seizures; type: in vivo, mouse; conditions: 350 mg/kg intraperitoneal
Description: Seizures were induced in 6-8 week old C57BL/6 male mice by the administration of pilocarpine, a muscarinic cholinergic agonist. Thirty minutes prior to pilocarpine administration, the mice were injected with 2.5 mg/kg of the cholinergic antagonist scopolamine methyl nitrate (Sigma-Aldrich) to reduce peripheral cholinergic effects. They then received intraperitoneal injections of 350 mg/kg pilocarpine hydrochloride (Sigma-Aldrich). […] Seizures were stopped 2 hours after status epilepticus onset, with an intraperitoneal injection of 5 mg/kg diazepam ([…], Parnell Laboratories Sydney, Australia).

[9] = test system: adult female mice; conditions: infusion, cited from earlier work
[10] = test system: SVZ-derived neurospheres; conditions: cited from earlier work
[11] = 10 nM and 30 nM PRL in presence of EGF

[Ba+2].[Cl-].[Cl-] [BaCl2, barium chloride]
increase in numbers of neurospheres ([1]; 1 mM BaCl2): over 2 fold

[Cl-].[K+] [KCl, potassium chloride]
SFU ([2]; Emx1+ve cells + KCL): 1/37
SFU ([2]; Emx1-ve cells + KCL): 1/10896
SFU ([2]; GFAP+ve cells + KCL): 1/127
SFU ([2]; GFAP-ve cells + KCL): 1/2220
diameter of stimulated neurospheres capable of long term passage ([3]; all twenty three): > 110 μm
large primary spheres that could be expanded in culture for up to 10 passages ([3]; potassium stimulated, standard conditions 0/113): 23 out of 64
increase in number of olfactory bulb neurospheres [4]: over 3 fold
size of activated olfactory-bulb neurospheres [4]: significant increase in the size
up-regulation of PRL [5]: 6.4 fold
up-regulation of Wnt3a [5]: 14.4 fold
increase in number of neurospheres generated ([1]; 20 mM KCl vs control (4 mM) potassium or sodium osmotic control, adult mouse): over 3 fold
increase in number of neurospheres, stimulated vs control ([1]; 18 month old hippocampus, depolarizing conditions): over 12 fold
effect on number of neurospheres generated ([1]; KCl as low as 10 mM and as high as 30 mM): significantly increase the number of neurospheres generated
optimal depolarizing level ([1]; KCl dose response assay): 15 mM
further increase of 33 week HD hippocampal precursors ([1]; R6/1 Huntington's disease mice, 33 weeks, potassium depolarization in vitro): could not be further increased
further stimulation of precursors from mice that underwent SE ([1]; depolarizing levels of potassium added in vitro after status epilepticus): no further stimulatory effect
decrease in neurosphere number ([6]; potassium-induced depolarization, adult SVZ): approx 40%
increase in cortex neurosphere number [7]: over 3 fold

CC[C@@H]1C(=O)OC[C@@H]1Cc1cncn1C [pilocarpine, pilocarpine hydrochloride]
mice in which seizures were observed [8]: 70%
seizing mice that entered status epilepticus [8]: 35%
time to status epilepticus after injection [8]: 78 ± 43 min

Wnt3a
generation of very large neurospheres (>250 μm) passaged long-term [1]: generation of a number of the very large neurospheres
increase in number of hippocampal neurospheres generated [1]: 2 fold
number of hippocampal neurospheres [1]: 204±66.1 % of control
neurosphere number, aged hippocampus [1]: 580±230 % of control
number of SVZ-derived neurospheres [6]: 98.5±4.5 % of control

B1: PRL: recombinant mouse prolactin (PRL; R&D Systems) (protein, UniProt P06879 30-226, looked up)
Prolactin: LPICSAGDCQTSLRELFDRVVILSHYIHTLYTDMFIEFDKQYVQDREFMVKVINDCPTSSLATPEDKEQALKVPPEVLLNLILSLVQSSSDPLFQLITGVGGIQEAPEYILSRAKEIEEQNKQLLEGVEKIISQAYPEAKGNGIYFVWSQLPSLQGVDEESKILSLRNTIRCLRRDSHKVDNFLKVLRCQIAHQNNC
generation of very large neurospheres (>250 μm) passaged long-term [1]: generation of a number of the very large neurospheres
increase in number of hippocampal neurospheres generated [1]: 2 fold
number of hippocampal neurospheres [1]: 217±13 % of control
neurosphere number, aged hippocampus [1]: 254±23 % of control
number of SVZ-derived neurospheres [6]: 100±9 % of control
number of new olfactory interneurons ([9]; after 4 weeks): doubled
BrdU-labeled cells in the forebrain SVZ ([9]; US 2003/0054998): increased
number of proliferating cells in hippocampal dentate gyrus [9]: no effect
effect on number of SVZ-derived neurospheres ([10]; 1 nM PRL): no effect
increase in number of neurons per neurosphere [10, 11]: two-fold
increase in numbers of SVZ-derived neurospheres [10, 11]: up to 35%
number of neurospheres in vitro, prolactin alone ([10]; without EGF, US 2003/0054998): did not significantly increase
